Where “and” joins values, the source holds several entries; their conditions need not be identical. Equal entries are not always repeated. Where two headings read alike, the source gives them in different places.
Experiments:
[1] = molecular target: T1, EGFR with insertion SVD between D770 and N771 (mutEGFR D770_N771insSVD) (Homo sapiens, UniProt P00533, DUP768-770); test: Exon20-Mutant-EGFR(D770_N771insSVD) kinase assay (TR-FRET); type: biochemical; settings: 2 mM ATP, Table 2
T1 construct: amino acids R669 to A1210; made in house; host or cells: Sf9 insect cells (baculovirus)

[2] = molecular target: Ba/F3-EGFR-D770_N771insSVD cells (Homo sapiens, UniProt P00533, DUP768-770, cells depend on it); test: Ba/F3 cell survival assay, EGFR D770_N771insSVD; type: cell-based
[3] = molecular target: Ba/F3-EGFR-WT cells (Homo sapiens, UniProt P00533); test: Ba/F3 cell survival assay, wild type EGFR; type: cell-based
[4] = molecular target: T2, Bub1 (Homo sapiens, UniProt O43683); test: Bub1 high ATP kinase assay (TR-FRET); type: biochemical; settings: Bub1 high ATP (2 mM) IC50, TR-FRET, 2 mM ATP; Table 3
T2 construct: catalytic domain of human Bub1 (amino acids 704-1085); His6 (N); made in house; host or cells: insect cells (Hi5)
Source text: Bub1 high ATP Kinase Assay
Bub1-inhibitory activity of compounds of the present invention at a high ATP concentration was quantified employing the Bub1 TR-FRET high ATP kinase assay as described in the following paragraphs.
N-terminally His6-tagged recombinant catalytic domain of human Bub1 (amino acids 704-1085), expressed in insect cells (Hi5) and purified by Ni-NTA affinity chromatography and subsequent size exclusion chromatography, was used as enzyme. As substrate for the kinase reaction the biotinylated peptide biotin-Ahx-[…] (C-terminus in amid form) was used which can be purchased e.g. form the company Biosyntan (Berlin, Germany).
Then the kinase reaction was started by the addition of 2 μl of a solution of Bub1 in assay buffer and the resulting mixture was incubated for a reaction time of 60 min at 22° C. The concentration of Bub1 was adjusted depending of the activity of the enzyme lot and was chosen appropriate to have the assay in the linear range, a typical concentration is about 200 ng/ml. The reaction was stopped by the addition of 3 μl of a solution of TR-FRET detection reagents (0.167 μM streptavidine-XL665 [Cisbio Bioassays, Codolet, France] and 1.67 nM anti-phosho-Serine antibody [Merck Millipore, cat. #35-002] and 0.67 nM LANCE EU-W1024 labeled anti-mouse IgG antibody [Perkin-Elmer, product no. AD0077, as an alternative a Terbium-cryptate-labeled anti-mouse IgG antibody from Cisbio Bioassays can be used]) in an aqueous EDTA-solution (83.3 mM EDTA, 0.2% (w/v) bovine serum albumin in 100 mM HEPES pH 7.5).
The resulting mixture was incubated 1 h at 22° C. to allow the formation of complex between the phosphorylated biotinylated peptide and the detection reagents. Subsequently the amount of phosphorylated substrate was evaluated by measurement of the resonance energy transfer from the Eu-chelate to the streptavidine-XL. Therefore, the fluorescence emissions at 620 nm and 665 nm after excitation at 350 nm was measured in a TR-FRET reader, e.g. a Pherastar or Pherastar FS (both from BMG Labtechnologies, Offenburg, Germany) or a Viewlux (Perkin-Elmer). The ratio of the emissions at 665 nm and at 622 nm was taken as the measure for the amount of phosphorylated substrate.

[5] = Cell Titer-Glo, 48 h, without IL-3; Table 4; read-out: BA/F3 (insSVD) IC50
[6] = Cell Titer-Glo, 48 h, with 10 ng/mL EGF; Table 4; read-out: BA/F3 (wild type) IC50

Ba/F3-EGFR-D770_N771insSVD cells, sequence (P00533 with tags, fused parts or gaps DUP768-770): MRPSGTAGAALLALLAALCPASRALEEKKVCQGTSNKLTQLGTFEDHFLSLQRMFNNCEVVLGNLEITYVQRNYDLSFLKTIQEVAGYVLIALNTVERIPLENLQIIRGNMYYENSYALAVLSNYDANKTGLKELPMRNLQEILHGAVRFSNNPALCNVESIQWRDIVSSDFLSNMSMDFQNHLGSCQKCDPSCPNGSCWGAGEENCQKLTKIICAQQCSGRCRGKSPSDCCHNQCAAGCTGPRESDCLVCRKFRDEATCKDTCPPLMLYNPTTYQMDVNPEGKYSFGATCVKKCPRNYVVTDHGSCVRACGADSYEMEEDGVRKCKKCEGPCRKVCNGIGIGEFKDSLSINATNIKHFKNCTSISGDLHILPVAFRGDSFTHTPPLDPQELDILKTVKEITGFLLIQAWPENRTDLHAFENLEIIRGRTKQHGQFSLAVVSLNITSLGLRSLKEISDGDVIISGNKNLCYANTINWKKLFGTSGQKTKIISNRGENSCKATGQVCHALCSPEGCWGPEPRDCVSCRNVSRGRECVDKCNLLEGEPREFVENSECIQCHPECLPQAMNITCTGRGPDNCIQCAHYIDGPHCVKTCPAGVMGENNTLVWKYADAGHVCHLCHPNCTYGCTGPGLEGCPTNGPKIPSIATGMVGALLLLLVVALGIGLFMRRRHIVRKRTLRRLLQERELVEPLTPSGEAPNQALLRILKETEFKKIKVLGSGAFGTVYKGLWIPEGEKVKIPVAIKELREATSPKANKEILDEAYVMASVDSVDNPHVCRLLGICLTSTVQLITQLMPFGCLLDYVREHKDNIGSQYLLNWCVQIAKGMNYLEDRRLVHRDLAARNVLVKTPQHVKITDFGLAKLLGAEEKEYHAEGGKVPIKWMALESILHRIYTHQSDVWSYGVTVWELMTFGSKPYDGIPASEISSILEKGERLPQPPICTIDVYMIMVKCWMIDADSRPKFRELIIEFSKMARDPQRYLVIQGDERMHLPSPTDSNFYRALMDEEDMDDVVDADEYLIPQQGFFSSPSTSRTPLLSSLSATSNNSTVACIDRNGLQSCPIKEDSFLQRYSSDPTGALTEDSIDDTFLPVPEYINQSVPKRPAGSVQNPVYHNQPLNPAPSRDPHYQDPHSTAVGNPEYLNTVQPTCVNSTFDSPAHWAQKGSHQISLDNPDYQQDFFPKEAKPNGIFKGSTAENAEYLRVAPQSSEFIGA
T2 sequence (O43683 704-1085): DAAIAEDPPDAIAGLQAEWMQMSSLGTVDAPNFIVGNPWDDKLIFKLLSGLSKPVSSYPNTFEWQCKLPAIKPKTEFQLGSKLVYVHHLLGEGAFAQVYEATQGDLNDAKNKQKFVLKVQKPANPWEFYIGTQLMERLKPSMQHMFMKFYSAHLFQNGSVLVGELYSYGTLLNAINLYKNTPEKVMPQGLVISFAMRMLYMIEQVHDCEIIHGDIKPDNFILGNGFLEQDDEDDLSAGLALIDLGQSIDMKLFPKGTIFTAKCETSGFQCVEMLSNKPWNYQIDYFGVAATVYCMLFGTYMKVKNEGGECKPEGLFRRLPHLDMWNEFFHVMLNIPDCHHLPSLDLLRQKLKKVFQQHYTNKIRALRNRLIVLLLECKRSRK
Ba/F3-EGFR-WT cells, sequence (P00533 whole entry, looked up, change not shown): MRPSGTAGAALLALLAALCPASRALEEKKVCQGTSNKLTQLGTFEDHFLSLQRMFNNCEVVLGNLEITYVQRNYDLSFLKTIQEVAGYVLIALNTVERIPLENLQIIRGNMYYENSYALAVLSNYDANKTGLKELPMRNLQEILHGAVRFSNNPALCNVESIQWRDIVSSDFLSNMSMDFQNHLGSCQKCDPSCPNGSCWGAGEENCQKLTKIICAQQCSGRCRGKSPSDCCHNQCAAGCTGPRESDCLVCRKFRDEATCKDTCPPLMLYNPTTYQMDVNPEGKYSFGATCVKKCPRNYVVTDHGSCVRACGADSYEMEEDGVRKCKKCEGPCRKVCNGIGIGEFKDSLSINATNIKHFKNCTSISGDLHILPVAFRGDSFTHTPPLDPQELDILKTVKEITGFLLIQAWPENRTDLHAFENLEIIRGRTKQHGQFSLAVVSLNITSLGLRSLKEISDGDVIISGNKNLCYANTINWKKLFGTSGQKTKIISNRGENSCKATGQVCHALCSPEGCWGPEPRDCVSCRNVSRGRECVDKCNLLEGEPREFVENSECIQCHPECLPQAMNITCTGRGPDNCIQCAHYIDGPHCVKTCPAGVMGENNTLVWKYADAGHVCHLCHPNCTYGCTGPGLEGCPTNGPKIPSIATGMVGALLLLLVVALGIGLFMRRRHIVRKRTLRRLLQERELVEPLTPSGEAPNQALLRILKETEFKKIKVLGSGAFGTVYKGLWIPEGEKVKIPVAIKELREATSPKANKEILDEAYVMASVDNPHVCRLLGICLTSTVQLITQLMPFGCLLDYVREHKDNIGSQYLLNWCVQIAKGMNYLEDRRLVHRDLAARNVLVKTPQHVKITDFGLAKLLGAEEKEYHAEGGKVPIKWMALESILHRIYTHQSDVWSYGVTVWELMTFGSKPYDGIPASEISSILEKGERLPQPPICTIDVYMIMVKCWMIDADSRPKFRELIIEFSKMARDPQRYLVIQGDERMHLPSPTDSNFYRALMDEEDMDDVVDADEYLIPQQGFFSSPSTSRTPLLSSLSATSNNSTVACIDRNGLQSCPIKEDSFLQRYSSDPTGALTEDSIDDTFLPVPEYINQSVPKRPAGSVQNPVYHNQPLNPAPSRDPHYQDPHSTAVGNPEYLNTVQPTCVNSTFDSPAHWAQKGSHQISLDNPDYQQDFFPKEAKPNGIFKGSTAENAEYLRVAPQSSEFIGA
T1 sequence (P00533 other isoform, or with tags, fused parts or gaps DUP768-770): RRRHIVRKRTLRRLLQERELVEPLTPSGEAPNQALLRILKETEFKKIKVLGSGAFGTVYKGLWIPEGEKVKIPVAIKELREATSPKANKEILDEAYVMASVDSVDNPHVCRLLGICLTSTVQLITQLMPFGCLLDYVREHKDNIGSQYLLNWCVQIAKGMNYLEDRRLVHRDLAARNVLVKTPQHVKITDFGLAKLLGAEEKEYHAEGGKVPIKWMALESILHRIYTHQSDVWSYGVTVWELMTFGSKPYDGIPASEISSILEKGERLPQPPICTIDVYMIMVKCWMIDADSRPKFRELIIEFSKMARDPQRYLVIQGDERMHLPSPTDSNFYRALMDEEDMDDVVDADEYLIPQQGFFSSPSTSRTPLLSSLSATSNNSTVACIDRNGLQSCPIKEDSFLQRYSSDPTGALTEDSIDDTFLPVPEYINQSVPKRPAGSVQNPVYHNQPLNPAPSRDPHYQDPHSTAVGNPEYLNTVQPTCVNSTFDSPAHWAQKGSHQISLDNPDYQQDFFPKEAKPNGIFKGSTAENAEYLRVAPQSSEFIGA

SMILES | mutEGFR (D770_N771insSVD) kinase assay IC50 [1] | IC50 [4] | GI50 [2, 5] | GI50 [3, 6] | GI50 ([2]; read-out: BA/F3 (insSVD) IC50; Cell Titer-Glo, 48 h, without IL-3; Table 4) | GI50 ([3]; read-out: BA/F3 (wild type) IC50; Cell Titer-Glo, 48 h, with 10 ng/mL EGF; Table 4)
Cc1c(Cl)cccc1Nc1c(-c2ccncc2OCC2COCCO2)[nH]c2c1C(=O)NCC2C (single isomer, unassigned) [Example 68, 3-(3-chloro-2-methyl-anilino)-2-[3-(1,4-dioxan-2-ylmethoxy)-4-pyridyl]-7-methyl-1,5,6,7-tetrahydropyrrolo[3,2-c]pyridin-4-one] | 0.3 nM | 5130 nM | 63.7 nM | 1380 nM | – | –
Cc1c(Cl)cccc1Nc1c(-c2ccncc2OC[C@@H]2CCCO2)[nH]c2c1C(=O)N[C@H](C)C2 [Example 104, (6R)-3-(3-chloro-2-methylanilino)-6-methyl-2-(3-{[(2S)-oxolan-2-yl]methoxy}pyridin-4-yl)-1,5,6,7-tetrahydro-4H-pyrrolo[3,2-c]pyridin-4-one] | 0.162 nM | 3630 nM | – | – | 32.3 nM | 983 nM
C=CCOCCOc1cnccc1-c1[nH]c2c(c1Nc1cccc(Cl)c1OC)C(=O)NCC2CC=C (stereo not drawn) [Example 114, 7-allyl-2-[3-(2-allyloxyethoxy)-4-pyridyl]-3-(3-chloro-2-methoxy-anilino)-1,5,6,7-tetrahydropyrrolo[3,2-c]pyridin-4-one] | 0.181 nM | 2070 nM | 28.7 nM | 347 nM | – | –
Cc1c(Cl)cccc1Nc1c(-c2ccncc2OC[C@@H]2CCCO2)[nH]c2c1C(=O)NCC2C (single isomer, unassigned) [Example 60] | 0.603 nM | 1620 nM | 175 nM | 1070 nM | – | –
COc1c(Cl)cccc1Nc1c(-c2ccncc2OC[C@@H]2CCCO2)[nH]c2c1C(=O)NCC2CCC(F)(F)F (single isomer, unassigned) [Example 98] | 0.525 nM | 954 nM | 18.1 nM | 444 nM | – | –
COc1c(Cl)cccc1Nc1c(-c2ccncc2OC[C@@H]2COCCN2C)[nH]c2c1C(=O)NCC2CCF (single isomer, unassigned) [Example 89] | 0.278 nM | 15600 nM | 18.2 nM | 425 nM | – | –
C[C@@H]1Cc2[nH]c(-c3ccncc3OC[C@@H]3CCCO3)c(Nc3cccc(F)c3CC(F)F)c2C(=O)N1 [Example 63, (6R)-3-[2-(2,2-difluoroethyl)-3-fluoroanilino]-6-methyl-2-(3-{[(2S)-oxolan-2-yl]methoxy}pyridin-4-yl)-1,5,6,7-tetrahydro-4H-pyrrolo[3,2-c]pyridin-4-one] | 0.211 nM | 14100 nM | 117 nM | 1170 nM | – | –
COCC(C)Oc1cnccc1-c1[nH]c2c(c1Nc1cccc(Cl)c1OC)C(=O)N[C@@H]1CCC[C@H]21 (stereo partly drawn) [Example 49, (5aR,8aS)-3-(3-chloro-2-methoxyanilino)-2-{3-[(1-methoxypropan-2-yl)oxy]-4-pyridyl}-5,5a,6,7,8,8a-hexahydrocyclopenta[b]pyrrolo[2,3-d]pyridin-4(1)-one] | 0.275 nM | 13200 nM | 33.1 nM | 291 nM | – | –

Second part, led by results:

mutEGFR (D770_N771insSVD) kinase assay IC50 [1] | IC50 [4] | SMILES | GI50 [2, 5] | GI50 [3, 6] | GI50 ([2]; read-out: BA/F3 (insSVD) IC50; Cell Titer-Glo, 48 h, without IL-3; Table 4) | GI50 ([3]; read-out: BA/F3 (wild type) IC50; Cell Titer-Glo, 48 h, with 10 ng/mL EGF; Table 4)
0.194 nM | 18500 nM and 18800 nM and > 20000 nM | COc1c(Cl)cccc1Nc1c(-c2ccncc2OC[C@@H]2CCCO2)[nH]c2c1C(=O)N[C@@H]1CCC[C@H]21 [Example 56, (5aR,8aS)-3-(3-chloro-2-methoxyanilino)-2-(3-{[(2S)-oxolan-2-yl]methoxy}-4-pyridyl)-5,5a,6,7,8,8a-hexahydrocyclopenta[b]pyrrolo[2,3-d]pyridin-4(1H)-one] | 51.5 nM | 693 nM | – | –
0.101 nM | 8240 nM | COc1c(F)cccc1Nc1c(-c2ccncc2OC[C@@H]2CCCO2)[nH]c2c1C(=O)NC(C)C2 (single isomer, unassigned) [Example 9] | 104 nM | 644 nM | – | –
0.188 nM | 628 nM | COc1c(Cl)cccc1Nc1c(-c2ccncc2OC[C@@H]2CCCO2)[nH]c2c1C(=O)NC(C(F)(F)F)C2 (mixture of isomers) [Example 38, 3-(3-chloro-2-methoxy-anilino)-2-(3-{[(2S)-tetrahydrofuran-2-yl]methoxy}-4-pyridyl)-6-(trifluoromethyl)-1,5,6,7-tetrahydropyrrolo[3,2-c]pyridin-4-one] | 138 nM | 996 nM | – | –
0.193 nM | 7830 nM | COc1c(Cl)cccc1Nc1c(-c2ccncc2OC[C@@H]2CN(C)CCO2)[nH]c2c1C(=O)NC1(CC1)C2 [Example 112, 3′-(3-chloro-2-methoxyanilino)-2′-(3-{[(2S)-4-methylmorpholin-2-yl]methoxy}pyridin-4-yl)-1′,7′-dihydrospiro[cyclopropane-1,6′-pyrrolo[3,2-c]pyridin]-4′(5′H)-one] | 20.4 nM | 553 nM | – | –
0.243 nM | 1980 nM | COc1c(Cl)cccc1Nc1c(-c2ccncc2OCC[C@@H]2CCCO2)[nH]c2c1C(=O)N[C@H](C)C2 [Example 92, (6R)-3-(3-chloro-2-methoxyanilino)-6-methyl-2-(3-{2-[(2S)-oxolan-2-yl]ethoxy}pyridin-4-yl)-1,5,6,7-tetrahydro-4H-pyrrolo[3,2-c]pyridin-4-one] | 20.2 nM | 519 nM | – | –
0.272 nM | 12400 nM | COc1c(Cl)cccc1Nc1c(-c2ccncc2OCC2COCCO2)[nH]c2c1C(=O)NCC2C (single isomer, unassigned) [Example 35, 3-(3-chloro-2-methoxy-anilino)-2-[3-(1,4-dioxan-2-ylmethoxy)-4-pyridyl]-7-methyl-1,5,6,7-tetrahydropyrrolo[3,2-c]pyridin-4-one] | 54.1 nM | 811 nM | – | –
0.318 nM | 1670 nM | COc1c(Cl)cccc1Nc1c(-c2ccncc2OCC2COC(C)(C)CO2)[nH]c2c1C(=O)NC1(CCC1)C2 (single isomer, unassigned) [Example 131, 3′-(3-chloro-2-methoxyanilino)-2′-{3-[(5,5-dimethyl-1,4-dioxan-2-yl)methoxy]pyridin-4-yl}-1′,7′-dihydrospiro[cyclobutane-1,6′-pyrrolo[3,2-c]pyridin]-4′(5′H)-one] | 48.4 nM | 980 nM | – | –
0.246 nM | 281 nM | COc1c(Cl)cccc1Nc1c(-c2ccncc2OC[C@@H]2CCCO2)[nH]c2c1C(=O)N[C@H]1CCC[C@@H]21 [Example 57, (5aS,8aR)-3-(3-chloro-2-methoxyanilino)-2-(3-{[(2S)-oxolan-2-yl]methoxy}pyridin-4-yl)-5,5a,6,7,8,8a-hexahydrocyclopenta[b]pyrrolo[2,3-d]pyridin-4(1)-one] | 195 nM | 1710 nM | – | –
0.125 nM | 9700 nM | COc1c(Cl)cccc1Nc1c(-c2ccncc2OC[C@@H]2CCCO2)[nH]c2c1C(=O)N[C@H](C)C2 (single isomer, unassigned) [Example 5] | 20.2 nM | 331 nM | – | –
0.341 nM | 1650 nM | COc1c(Cl)cccc1Nc1c(-c2ccncc2OCC2COC(C)(C)CO2)[nH]c2c1C(=O)NC1(CC1)C2 (single isomer, unassigned) [Example 133, 3′-(3-chloro-2-methoxyanilino)-2′-(3-{[5,5-dimethyl-1,4-dioxan-2-yl]methoxy}pyridin-4-yl)-1′,7′-dihydrospiro[cyclopropane-1,6′-pyrrolo[3,2-c]pyridin]-4′(5′H)-one] | 22.2 nM | 484 nM | – | –

Reference: patent publication US20230064983A1 (priority 2020, published 2023)
